Common to all, as to experiment: Thermal stability shift assay
Common to all, as to format: binding

One experiment deals with T1, ALK4 (Homo sapiens, UniProt P36896).
T1 sequence (P36896 24-505): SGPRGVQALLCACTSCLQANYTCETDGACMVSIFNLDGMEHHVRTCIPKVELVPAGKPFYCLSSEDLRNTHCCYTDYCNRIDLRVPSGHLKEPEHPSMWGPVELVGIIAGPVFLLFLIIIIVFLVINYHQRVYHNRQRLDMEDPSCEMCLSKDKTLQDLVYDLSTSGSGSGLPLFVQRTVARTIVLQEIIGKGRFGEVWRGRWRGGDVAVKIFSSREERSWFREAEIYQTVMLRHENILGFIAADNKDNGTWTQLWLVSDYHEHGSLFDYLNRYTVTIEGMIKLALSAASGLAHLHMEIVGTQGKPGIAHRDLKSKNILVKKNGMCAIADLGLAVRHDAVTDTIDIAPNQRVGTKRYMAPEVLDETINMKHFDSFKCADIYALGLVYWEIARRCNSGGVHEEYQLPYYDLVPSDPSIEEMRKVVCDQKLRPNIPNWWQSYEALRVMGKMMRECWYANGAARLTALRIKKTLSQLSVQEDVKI
The conditions noted are these: read-out: Tm shift ALK4. An outline of the steps:
(§1)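 DSF read-out: SyproOrange fluorescence (1:1000) during thermal unfolding of 2 μM kinase with 10 μM compound. Buffer 10 mM HEPES pH 7.5, 500 mM NaCl; run on a real-time PCR machine.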

The target of the next experiment is CHK2 (Homo sapiens, UniProt O96017). The conditions noted are these: read-out: Tm shift CHK2. An outline of the steps:
as §1

For another experiment, the target named is T2, IKKb (Homo sapiens, UniProt O14920).
T2 construct: purchased in-house (SGC Oxford thermal shift panel)
T2 sequence (O14920 1-756): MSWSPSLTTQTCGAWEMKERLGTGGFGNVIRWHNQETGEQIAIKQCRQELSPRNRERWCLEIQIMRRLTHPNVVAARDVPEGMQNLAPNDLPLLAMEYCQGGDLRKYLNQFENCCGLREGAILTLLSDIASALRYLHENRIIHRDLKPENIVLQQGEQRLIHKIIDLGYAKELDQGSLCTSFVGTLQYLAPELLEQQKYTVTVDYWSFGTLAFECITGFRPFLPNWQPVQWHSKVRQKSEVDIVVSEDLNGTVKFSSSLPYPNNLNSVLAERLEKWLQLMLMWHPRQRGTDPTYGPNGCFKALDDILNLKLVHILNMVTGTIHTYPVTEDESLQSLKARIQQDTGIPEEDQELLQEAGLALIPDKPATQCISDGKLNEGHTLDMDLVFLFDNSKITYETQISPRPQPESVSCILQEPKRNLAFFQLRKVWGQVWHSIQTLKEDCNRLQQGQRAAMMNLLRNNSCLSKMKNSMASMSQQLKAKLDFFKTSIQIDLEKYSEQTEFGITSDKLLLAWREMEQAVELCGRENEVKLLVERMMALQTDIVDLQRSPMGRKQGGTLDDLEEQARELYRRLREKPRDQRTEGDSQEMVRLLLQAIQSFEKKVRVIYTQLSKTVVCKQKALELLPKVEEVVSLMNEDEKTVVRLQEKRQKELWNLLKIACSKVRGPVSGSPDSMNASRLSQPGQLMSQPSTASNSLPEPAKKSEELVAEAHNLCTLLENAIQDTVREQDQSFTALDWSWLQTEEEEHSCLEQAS
The conditions noted are these: read-out: Tm shift IKKb. An outline of the steps:
as §1

A further experiment addresses T3, JAK1 (Homo sapiens, UniProt P23458).
T3 construct: purchased in-house (SGC Oxford thermal shift panel)
The conditions noted are these: read-out: Tm shift JAK1. An outline of the steps: as §1

A further experiment concerns the target T4, JNK2 (Homo sapiens, UniProt P45984).
T4 construct: purchased in-house (SGC Oxford thermal shift panel)
The note with it: read-out: Tm shift JNK2. An outline of the steps:
as §1

In the next experiment the target is T5, LOK (Homo sapiens, UniProt O94804).
T5 construct: purchased in-house (SGC Oxford thermal shift panel)
T5 sequence (O94804 whole entry): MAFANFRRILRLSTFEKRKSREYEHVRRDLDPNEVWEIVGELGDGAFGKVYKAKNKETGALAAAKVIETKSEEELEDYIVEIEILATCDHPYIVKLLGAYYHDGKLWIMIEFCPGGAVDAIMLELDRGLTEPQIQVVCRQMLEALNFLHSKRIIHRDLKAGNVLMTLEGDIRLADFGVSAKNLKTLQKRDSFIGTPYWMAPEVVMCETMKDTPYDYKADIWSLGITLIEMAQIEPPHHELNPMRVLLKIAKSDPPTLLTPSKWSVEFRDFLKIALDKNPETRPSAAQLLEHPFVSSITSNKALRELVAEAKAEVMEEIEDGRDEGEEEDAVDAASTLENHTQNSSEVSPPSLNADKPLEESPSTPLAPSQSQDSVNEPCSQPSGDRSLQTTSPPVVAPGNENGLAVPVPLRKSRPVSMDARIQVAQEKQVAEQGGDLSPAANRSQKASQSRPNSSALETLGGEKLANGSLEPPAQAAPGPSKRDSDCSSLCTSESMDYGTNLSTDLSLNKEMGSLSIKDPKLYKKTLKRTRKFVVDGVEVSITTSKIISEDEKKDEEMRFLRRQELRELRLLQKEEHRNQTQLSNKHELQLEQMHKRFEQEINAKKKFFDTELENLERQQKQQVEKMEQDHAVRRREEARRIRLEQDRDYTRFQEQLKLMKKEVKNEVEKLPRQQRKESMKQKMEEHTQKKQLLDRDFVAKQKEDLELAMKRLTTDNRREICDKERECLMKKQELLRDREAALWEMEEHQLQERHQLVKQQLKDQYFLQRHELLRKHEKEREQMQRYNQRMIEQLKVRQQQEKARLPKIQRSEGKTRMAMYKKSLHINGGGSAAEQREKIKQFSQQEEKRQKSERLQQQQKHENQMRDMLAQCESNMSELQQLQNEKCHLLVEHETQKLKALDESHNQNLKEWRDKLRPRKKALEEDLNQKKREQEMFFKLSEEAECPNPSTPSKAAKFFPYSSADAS
The conditions noted are these: read-out: Tm shift LOK. An outline of the steps:
as §1

Another experiment deals with PIM3 (Homo sapiens, UniProt Q86V86). The note with it: read-out: Tm shift PIM3. An outline of the steps: as §1
For the next experiment, the target named is T6, PKCz (Homo sapiens, UniProt Q05513).
T6 sequence (Q05513 1-592): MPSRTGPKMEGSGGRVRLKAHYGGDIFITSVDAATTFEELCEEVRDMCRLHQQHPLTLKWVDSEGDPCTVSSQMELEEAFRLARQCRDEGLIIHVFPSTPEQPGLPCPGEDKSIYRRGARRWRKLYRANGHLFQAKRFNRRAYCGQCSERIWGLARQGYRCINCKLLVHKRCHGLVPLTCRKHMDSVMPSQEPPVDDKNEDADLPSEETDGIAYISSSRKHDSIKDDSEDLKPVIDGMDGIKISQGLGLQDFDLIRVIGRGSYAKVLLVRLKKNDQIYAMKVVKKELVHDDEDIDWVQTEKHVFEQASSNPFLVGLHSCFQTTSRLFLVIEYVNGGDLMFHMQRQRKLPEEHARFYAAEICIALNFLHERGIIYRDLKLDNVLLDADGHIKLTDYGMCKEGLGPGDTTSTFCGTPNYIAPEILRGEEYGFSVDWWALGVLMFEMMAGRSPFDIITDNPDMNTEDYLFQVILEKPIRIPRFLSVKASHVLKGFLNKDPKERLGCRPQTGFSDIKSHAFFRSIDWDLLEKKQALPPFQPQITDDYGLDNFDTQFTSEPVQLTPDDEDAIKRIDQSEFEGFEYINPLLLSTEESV
The conditions noted are these: read-out: Tm shift PKCz. An outline of the steps: as §1

The target of another experiment is T7, PRKX (Homo sapiens, UniProt P51817).
T7 sequence (P51817 1-358): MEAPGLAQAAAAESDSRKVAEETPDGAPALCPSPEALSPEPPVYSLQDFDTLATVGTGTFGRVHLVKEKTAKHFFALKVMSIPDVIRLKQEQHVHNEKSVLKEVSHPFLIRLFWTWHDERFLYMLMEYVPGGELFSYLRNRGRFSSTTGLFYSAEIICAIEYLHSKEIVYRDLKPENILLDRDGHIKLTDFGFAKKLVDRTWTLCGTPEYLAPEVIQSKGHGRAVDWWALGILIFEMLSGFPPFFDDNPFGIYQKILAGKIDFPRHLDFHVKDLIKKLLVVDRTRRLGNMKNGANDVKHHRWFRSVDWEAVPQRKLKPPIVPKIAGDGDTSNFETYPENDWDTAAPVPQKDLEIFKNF
The conditions noted are these: read-out: Tm shift PRKX. An outline of the steps:
as §1

The target of a further experiment is T8, RSK2~C (Homo sapiens, UniProt P51812).
T8 construct: RSK2~C 2.7 12.3 2.0 1.0 1.3 -0.2 0.4
T8 sequence (P51812 422-679 limits assumed): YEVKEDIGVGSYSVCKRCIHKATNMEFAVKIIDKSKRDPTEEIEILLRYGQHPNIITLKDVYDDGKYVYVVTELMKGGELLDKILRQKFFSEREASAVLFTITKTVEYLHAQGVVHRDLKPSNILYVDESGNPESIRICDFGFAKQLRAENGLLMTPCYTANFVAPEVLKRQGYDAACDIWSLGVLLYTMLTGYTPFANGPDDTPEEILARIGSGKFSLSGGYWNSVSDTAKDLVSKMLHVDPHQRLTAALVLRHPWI
The conditions noted are these: read-out: Tm shift RSK2~C. An outline of the steps:
as §1

The next experiment addresses SLK (Homo sapiens, UniProt Q9H2G2). The conditions noted are these: read-out: Tm shift SLK. An outline of the steps: as §1

Where two headings read alike, the source gives them in different places.

CHK2, sequence (O96017 whole entry): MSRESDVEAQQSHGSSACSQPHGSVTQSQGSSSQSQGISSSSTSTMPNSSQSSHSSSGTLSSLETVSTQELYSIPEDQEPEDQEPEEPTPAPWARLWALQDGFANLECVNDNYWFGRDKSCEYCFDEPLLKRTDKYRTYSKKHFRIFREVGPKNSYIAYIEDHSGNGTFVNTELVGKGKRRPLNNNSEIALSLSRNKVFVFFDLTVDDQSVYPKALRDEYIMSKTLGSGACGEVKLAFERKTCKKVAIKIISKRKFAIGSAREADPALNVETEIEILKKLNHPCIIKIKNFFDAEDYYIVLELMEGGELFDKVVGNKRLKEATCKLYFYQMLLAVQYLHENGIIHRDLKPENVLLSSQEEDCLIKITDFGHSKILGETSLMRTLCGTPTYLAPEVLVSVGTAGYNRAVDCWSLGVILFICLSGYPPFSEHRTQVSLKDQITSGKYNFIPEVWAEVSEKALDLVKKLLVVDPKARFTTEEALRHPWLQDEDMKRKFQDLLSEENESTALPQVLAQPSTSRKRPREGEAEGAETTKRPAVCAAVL
T3 sequence (P23458 whole entry): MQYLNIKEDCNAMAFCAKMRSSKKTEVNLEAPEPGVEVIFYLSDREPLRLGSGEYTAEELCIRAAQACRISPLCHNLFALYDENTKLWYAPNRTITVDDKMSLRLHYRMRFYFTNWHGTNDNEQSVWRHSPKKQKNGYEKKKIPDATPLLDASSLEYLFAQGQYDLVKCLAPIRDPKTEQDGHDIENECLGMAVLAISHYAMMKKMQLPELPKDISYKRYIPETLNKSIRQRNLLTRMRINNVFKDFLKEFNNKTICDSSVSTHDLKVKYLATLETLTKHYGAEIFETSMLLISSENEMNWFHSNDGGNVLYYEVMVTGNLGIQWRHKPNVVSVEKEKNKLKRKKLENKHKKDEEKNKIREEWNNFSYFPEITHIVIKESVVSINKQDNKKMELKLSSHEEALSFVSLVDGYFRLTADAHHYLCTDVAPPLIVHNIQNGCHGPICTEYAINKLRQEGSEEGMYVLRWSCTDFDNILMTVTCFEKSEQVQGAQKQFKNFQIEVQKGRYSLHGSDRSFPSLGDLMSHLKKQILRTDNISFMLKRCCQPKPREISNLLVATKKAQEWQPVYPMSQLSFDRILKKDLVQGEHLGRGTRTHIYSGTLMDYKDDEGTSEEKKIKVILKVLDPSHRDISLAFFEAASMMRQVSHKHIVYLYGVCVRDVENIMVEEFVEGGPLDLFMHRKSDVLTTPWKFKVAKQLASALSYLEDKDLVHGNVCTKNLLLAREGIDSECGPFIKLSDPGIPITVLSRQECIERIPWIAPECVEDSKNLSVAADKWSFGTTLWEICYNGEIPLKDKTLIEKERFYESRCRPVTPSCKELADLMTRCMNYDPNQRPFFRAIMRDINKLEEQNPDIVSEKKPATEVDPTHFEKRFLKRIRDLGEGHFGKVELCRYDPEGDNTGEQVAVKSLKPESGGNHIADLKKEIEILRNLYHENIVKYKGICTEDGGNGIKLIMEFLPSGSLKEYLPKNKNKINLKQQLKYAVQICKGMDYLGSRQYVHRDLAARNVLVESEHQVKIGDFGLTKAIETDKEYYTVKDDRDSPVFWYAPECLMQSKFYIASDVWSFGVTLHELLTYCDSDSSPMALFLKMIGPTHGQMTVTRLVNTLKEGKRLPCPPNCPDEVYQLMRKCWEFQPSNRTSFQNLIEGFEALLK
SLK, sequence (Q9H2G2 whole entry): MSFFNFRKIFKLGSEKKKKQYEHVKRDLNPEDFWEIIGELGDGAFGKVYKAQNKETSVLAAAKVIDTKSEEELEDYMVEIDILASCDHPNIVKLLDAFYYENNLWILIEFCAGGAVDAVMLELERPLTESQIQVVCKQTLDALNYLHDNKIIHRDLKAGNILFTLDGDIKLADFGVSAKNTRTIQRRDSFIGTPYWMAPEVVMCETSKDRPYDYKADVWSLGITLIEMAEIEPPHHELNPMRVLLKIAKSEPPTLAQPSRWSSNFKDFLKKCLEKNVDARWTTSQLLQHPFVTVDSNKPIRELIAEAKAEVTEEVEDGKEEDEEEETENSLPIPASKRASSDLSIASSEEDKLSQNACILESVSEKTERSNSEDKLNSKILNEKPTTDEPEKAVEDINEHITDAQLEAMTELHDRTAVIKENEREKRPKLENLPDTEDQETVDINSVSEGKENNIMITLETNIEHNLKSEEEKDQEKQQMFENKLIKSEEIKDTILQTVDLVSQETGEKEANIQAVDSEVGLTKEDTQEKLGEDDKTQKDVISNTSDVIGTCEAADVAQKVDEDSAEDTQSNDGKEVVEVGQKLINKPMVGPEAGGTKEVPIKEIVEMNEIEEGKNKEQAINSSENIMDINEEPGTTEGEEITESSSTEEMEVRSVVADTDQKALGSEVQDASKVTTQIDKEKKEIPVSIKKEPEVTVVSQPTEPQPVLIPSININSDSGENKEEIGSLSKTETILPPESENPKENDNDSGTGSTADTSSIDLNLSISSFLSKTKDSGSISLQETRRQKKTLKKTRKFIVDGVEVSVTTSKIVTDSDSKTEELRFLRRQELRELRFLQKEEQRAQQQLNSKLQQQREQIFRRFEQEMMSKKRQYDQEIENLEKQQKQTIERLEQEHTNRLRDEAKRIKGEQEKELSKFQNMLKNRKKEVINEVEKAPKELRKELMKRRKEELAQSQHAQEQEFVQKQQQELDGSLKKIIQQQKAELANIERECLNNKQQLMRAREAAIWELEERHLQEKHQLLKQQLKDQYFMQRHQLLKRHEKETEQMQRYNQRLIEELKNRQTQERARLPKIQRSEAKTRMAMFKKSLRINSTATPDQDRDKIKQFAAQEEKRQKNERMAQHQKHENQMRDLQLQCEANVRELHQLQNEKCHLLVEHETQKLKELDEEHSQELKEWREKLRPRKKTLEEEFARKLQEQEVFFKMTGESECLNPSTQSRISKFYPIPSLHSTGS
T4 sequence (P45984 whole entry): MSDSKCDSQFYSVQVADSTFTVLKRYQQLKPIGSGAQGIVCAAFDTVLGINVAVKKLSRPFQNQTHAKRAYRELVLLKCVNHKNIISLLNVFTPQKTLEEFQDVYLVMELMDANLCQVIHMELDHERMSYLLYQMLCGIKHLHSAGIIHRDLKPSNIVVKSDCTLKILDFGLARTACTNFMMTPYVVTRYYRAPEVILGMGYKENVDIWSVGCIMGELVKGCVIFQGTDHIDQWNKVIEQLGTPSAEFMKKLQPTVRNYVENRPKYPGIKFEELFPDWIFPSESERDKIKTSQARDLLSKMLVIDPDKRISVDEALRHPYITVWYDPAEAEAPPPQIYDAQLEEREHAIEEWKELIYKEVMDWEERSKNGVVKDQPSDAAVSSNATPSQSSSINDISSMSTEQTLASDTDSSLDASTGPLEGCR

Turning to `CCOC(=O)c1c(/C(C#N)=C\N)c2ccc(Cl)c(Cl)c2n1C` [KH-CB19, (E)-Ethyl 3-(2-Amino-1-Cyanovinyl)-6,7-Dichloro-1-Methyl-1H-Indole-2-Carboxylate], the ΔTm at 10 µM is 1.2 °C at ALK4; 0.4 °C on CHK2; -0.1 °C at IKKb; 0.7 °C on JAK1; -0.2 °C at JNK2; -0.8 °C on LOK. Moreover, the ΔTm at 10 µM at PIM3 is 3.1 °C; on PKCz, -0.2 °C; on PRKX it was 0.5 °C; on RSK2~C, 2 °C; at SLK, 0 °C.

For `NC1=NC(=O)/C(=C2\CCNC(=O)c3[nH]c(Br)cc32)N1` [Hymenialdisine, hymenialdisine, reference compound], the ΔTm at 10 µM is 4.9 °C on ALK4 (inhibitor 10 μM); 5.7 °C on CHK2 (inhibitor 10 μM); 0.7 °C at IKKb (inhibitor 10 μM); 0.3 °C at JAK1 (inhibitor 10 μM); -0.1 °C at JNK2 (inhibitor 10 μM); 4.2 °C at LOK (inhibitor 10 μM). The ΔTm at 10 µM at PIM3 (inhibitor 10 μM) is 3.8 °C; at PKCz (inhibitor 10 μM) it was -0.2 °C; on PRKX (inhibitor 10 μM), 0.3 °C; at RSK2~C (inhibitor 10 μM), 2.7 °C; at SLK (inhibitor 10 μM), 2.1 °C.

`CCOC(=O)c1c(C(C#N)=CN)c2ccc(Cl)c(Cl)c2n1C` (mixture of isomers) [KH-CB20, (E/Z)-Ethyl 3-(2-Amino-1-Cyanovinyl)-6,7-Dichloro-1-Methyl-1H-Indole-2-Carboxylate]: the ΔTm at 10 µM on ALK4 worked out at 1.4 °C; at CHK2 it was 1 °C; on IKKb, 0.1 °C; on JAK1 it was 1 °C; on JNK2, 0.5 °C; at LOK it was 3 °C. Besides, the ΔTm at 10 µM came out at 2.8 °C at PIM3; 0.1 °C at PKCz; 0.4 °C at PRKX; 1 °C on RSK2~C; 0.1 °C at SLK.

Take `Cn1c2c(Cl)c(Cl)ccc2c2c(C#N)c[nH]c(=O)c21` [compound 3, 7,8-Dichloro-9-Methyl-1-Oxo-2,9-Dihydro-1H-Pyrido[3,4-b]Indole-4-Carbonitrile]: the ΔTm at 10 µM on ALK4 (inhibitor 10 μM) was 0.9 °C; on CHK2 (inhibitor 10 μM) it was 0.5 °C; at IKKb (inhibitor 10 μM) it was 0.5 °C; on JAK1 (inhibitor 10 μM), 0.9 °C; at JNK2 (inhibitor 10 μM), -0.5 °C; at LOK (inhibitor 10 μM), -0.7 °C. Further, the ΔTm at 10 µM at PIM3 (inhibitor 10 μM) was 4.2 °C; on PKCz (inhibitor 10 μM), 0.5 °C; at PRKX (inhibitor 10 μM) it was 0.5 °C; at RSK2~C (inhibitor 10 μM), 1.3 °C; at SLK (inhibitor 10 μM), -0.6 °C.

On to `CCOC(=O)c1c(C(C#N)=CN(C)C)c2ccc(Cl)c(Cl)c2n1C` (mixture of isomers) [compound 2, (E/Z)-Ethyl 6,7-Dichloro-3-[1-Cyano-2-(Dimethylamino)Vinyl]-1-Methyl-1H-Indole-2-Carboxylate], for which the ΔTm at 10 µM was 4 °C on ALK4 (inhibitor 10 μM); 0.3 °C on CHK2 (inhibitor 10 μM); 0.6 °C on IKKb (inhibitor 10 μM); 0.2 °C at JAK1 (inhibitor 10 μM); -0.2 °C at JNK2 (inhibitor 10 μM); -1.1 °C at LOK (inhibitor 10 μM). Also, the ΔTm at 10 µM at PIM3 (inhibitor 10 μM) is 3.2 °C; on PKCz (inhibitor 10 μM) it was 0.4 °C; on PRKX (inhibitor 10 μM), 0.3 °C; at RSK2~C (inhibitor 10 μM) it was -0.2 °C; on SLK (inhibitor 10 μM), -0.7 °C.

For the origin of these results see PMC3145970, “Specific CLK Inhibitors from a Novel Chemotype for Regulation of Alternative Splicing” (Chemistry & Biology, 2011).
